Test results as given in patent publication US6355799B1, “Substituted benzene compounds, process for their preparation, and herbicidal and defoliant compositions containing them” (ISK Americas Incorporated, priority 1997, dated 2002).

Assays:
Format in all cases: in vivo
[1] = system: redroot pigweed (Amaranthus retroflexus, AMARE); assay: Pre-emerge test, greenhouse herbicide activity screening; conditions: rated 14 days after application, 0 = no damage, 100 = complete death
Procedure, shortened: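 Sandy loam pots; pre-emerge: sown 1 d pre-spray, surface-watered after, then bottom-watered. Post-emerge: sown 8–21 d before, 2–3 leaf stage, + 0.25% v/v NIS, bottom-watered. Acetone, 187 l/ha track spray, 15–1000 g ai/ha. 0–100 injury score, day 14.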

[2] = system: large crabgrass (Digitaria sanguinalis, DIGSA); assay: as above; conditions: rated 14 days after application, 0 = no damage, 100 = complete death
Procedure, shortened: (§1)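 Visual ratings on a 0-100 scale (0 no damage, 100 all plants dead) were taken at 14 days after treatment. Rates of 15-1000 g ai/ha in acetone, 187 l/ha, were sprayed onto soil one day after planting (pre-emerge) or onto 2-3 leaf plants with 0.25% v/v surfactant (post-emerge).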

[3] = system: green foxtail (Setaria viridis, SETVI); assay: as above; conditions: rated 14 days after application, 0 = no damage, 100 = complete death
Procedure, shortened: as §1

[4] = system: johnsongrass (Sorghum halepense, SORHA); assay: as above; conditions: rated 14 days after application, 0 = no damage, 100 = complete death
Procedure, shortened: as §1

[5] = system: sicklepod (Cassia obtusifolia, CASOB); assay: as above; conditions: rated 14 days after application, 0 = no damage, 100 = complete death
Procedure, shortened: as §1

[6] = system: lambsquarters (Chenopodium album, CHEAL); assay: as above; conditions: rated 14 days after application, 0 = no damage, 100 = complete death
Procedure, shortened: as §1

[7] = system: velvetleaf (Abutilon theophrasti, ABUTH); assay: as above; conditions: rated 14 days after application, 0 = no damage, 100 = complete death
Procedure, shortened: as §1

[8] = system: ivyleaf morningglory (Ipomoea hederacea, IPOHE); assay: as above; conditions: rated 14 days after application, 0 = no damage, 100 = complete death
Procedure, shortened: as §1

[9] = system: barnyardgrass (Echinochloa crus-galli, ECHCG); assay: as above; conditions: rated 14 days after application, 0 = no damage, 100 = complete death
Procedure, shortened: as §1

[10] = system: common ragweed (Ambrosia artemisizfolia L., AMBEL); assay: as above; conditions: rated 14 days after application, 0 = no damage, 100 = complete death
Procedure, shortened: as §1

[11] = system: upland rice (Oryza sp., var. Tebonnet, RICE); assay: Pre-emerge test, crop safety; conditions: rated 14 days after application, 0 = no damage, 100 = complete death
Procedure, shortened: (§2)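 Plants grown in 10 cm pots of sandy loam mix received acetone-dissolved compounds through a moving flat-fan nozzle. Doses ranged from 15 to 1000 g ai/ha. Pre-emerge pots were seeded one day earlier, post-emerge pots 8–21 days earlier. Fourteen days on, each pot was graded 0–100 for damage.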

[12] = system: field corn (Zea mays L., var. Dekalb 535, CORN); assay: Pre-emerge test, crop safety; conditions: rated 14 days after application, 0 = no damage, 100 = complete death
Procedure, shortened: as §2

[13] = system: upland rice (Oryza sp., var. Tebonnet, RICE); assay: Post-emerge test, crop safety; conditions: post-emerge, 14 days after application, rating scale 0-100
Procedure, shortened: as §1

[14] = system: field corn (Zea mays L., var. Dekalb 535, CORN); assay: Post-emerge test, crop safety; conditions: post-emerge, 14 days after application, rating scale 0-100
Procedure, shortened: as §1

[15] = system: large crabgrass (Digitaria sanguinalis, DIGSA); assay: Post-emerge test, greenhouse herbicide activity screening; conditions: post-emerge, 14 days after application, rating scale 0-100
Procedure, shortened: (§3)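 Each test used a mechanized track sprayer delivering 187 l/ha of acetone solution at 15–1000 g ai/ha. Post-emerge foliage at 2–3 leaves was treated with added 0.25% v/v non-ionic surfactant and bottom-watered only. Injury was assessed on day 14, where 100 means total kill.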

[16] = system: green foxtail (Setaria viridis, SETVI); assay: as above; conditions: post-emerge, 14 days after application, rating scale 0-100
Procedure, shortened: as §3

[17] = system: johnsongrass (Sorghum halepense, SORHA); assay: as above; conditions: post-emerge, 14 days after application, rating scale 0-100
Procedure, shortened: as §3

[18] = system: sicklepod (Cassia obtusifolia, CASOB); assay: as above; conditions: post-emerge, 14 days after application, rating scale 0-100
Procedure, shortened: as §3

[19] = system: redroot pigweed (Amaranthus retroflexus, AMARE); assay: as above; conditions: post-emerge, 14 days after application, rating scale 0-100
Procedure, shortened: as §3

[20] = system: lambsquarters (Chenopodium album, CHEAL); assay: as above; conditions: post-emerge, 14 days after application, rating scale 0-100
Procedure, shortened: as §3

[21] = system: velvetleaf (Abutilon theophrasti, ABUTH); assay: as above; conditions: post-emerge, 14 days after application, rating scale 0-100
Procedure, shortened: as §3

[22] = system: ivyleaf morningglory (Ipomoea hederacea, IPOHE); assay: as above; conditions: post-emerge, 14 days after application, rating scale 0-100
Procedure, shortened: as §3

[23] = system: barnyardgrass (Echinochloa crus-galli, ECHCG); assay: as above; conditions: post-emerge, 14 days after application, rating scale 0-100
Procedure, shortened: as §3

[24] = system: common ragweed (Ambrosia artemisizfolia L., AMBEL); assay: as above; conditions: post-emerge, 14 days after application, rating scale 0-100
Procedure, shortened: as §3

COc1c(Cl)cc(F)c(-n2c(=O)cc(C(F)(F)F)n(C)c2=O)c1NC(=O)c1ccc(CCl)cc1 [2-36]
Pre-emerge Herbicidal Activity, phytotoxicity rating (0-100), AMARE ([1]; 63 g ai/ha): 100
Pre-emerge Herbicidal Activity, phytotoxicity rating (0-100), AMARE ([1]; 250 g ai/ha): 100
Pre-emerge Herbicidal Activity, phytotoxicity rating (0-100), DIGSA ([2]; 63 g ai/ha): 0
Pre-emerge Herbicidal Activity, phytotoxicity rating (0-100), DIGSA ([2]; 250 g ai/ha): 30
Pre-emerge Herbicidal Activity, phytotoxicity rating (0-100), SETVI ([3]; 63 g ai/ha): 25
Pre-emerge Herbicidal Activity, phytotoxicity rating (0-100), SETVI ([3]; 250 g ai/ha): 90
Pre-emerge Herbicidal Activity, phytotoxicity rating (0-100), SORHA ([4]; 63 g ai/ha): 0
Pre-emerge Herbicidal Activity, phytotoxicity rating (0-100), SORHA ([4]; 250 g ai/ha): 20
Pre-emerge Herbicidal Activity, phytotoxicity rating (0-100), CASOB ([5]; 63 g ai/ha): 10
Pre-emerge Herbicidal Activity, phytotoxicity rating (0-100), CASOB ([5]; 250 g ai/ha): 70
Pre-emerge Herbicidal Activity, phytotoxicity rating (0-100), CHEAL ([6]; 63 g ai/ha): 90
Pre-emerge Herbicidal Activity, phytotoxicity rating (0-100), CHEAL ([6]; 250 g ai/ha): 100
Pre-emerge Herbicidal Activity, phytotoxicity rating (0-100), ABUTH ([7]; 63 g ai/ha): 100
Pre-emerge Herbicidal Activity, phytotoxicity rating (0-100), ABUTH ([7]; 250 g ai/ha): 100
Pre-emerge Herbicidal Activity, phytotoxicity rating (0-100), IPOHE ([8]; 63 g ai/ha): 0
Pre-emerge Herbicidal Activity, phytotoxicity rating (0-100), IPOHE ([8]; 250 g ai/ha): 60
Pre-emerge Herbicidal Activity, phytotoxicity rating (0-100), ECHCG ([9]; 63 g ai/ha): 0
Pre-emerge Herbicidal Activity, phytotoxicity rating (0-100), ECHCG ([9]; 250 g ai/ha): 10
Pre-emerge Herbicidal Activity, phytotoxicity rating (0-100), AMBEL ([10]; 63 g ai/ha): 0
Pre-emerge Herbicidal Activity, phytotoxicity rating (0-100), AMBEL ([10]; 250 g ai/ha): 30
Pre-emerge phytotoxicity rating (0-100), crop damage, RICE ([11]; 63 g ai/ha): 0
Pre-emerge phytotoxicity rating (0-100), crop damage, RICE ([11]; 250 g ai/ha): 40
Pre-emerge phytotoxicity rating (0-100), crop damage, CORN ([12]; 63 g ai/ha): 0
Pre-emerge phytotoxicity rating (0-100), crop damage, CORN ([12]; 250 g ai/ha): 0
phytotoxicity rating RICE ([13]; 63 g ai/ha): 25
phytotoxicity rating RICE ([13]; 250 g ai/ha): 40
phytotoxicity rating CORN ([14]; 63 g ai/ha): 10
phytotoxicity rating CORN ([14]; 250 g ai/ha): 20
phytotoxicity rating DIGSA ([15]; 63 g ai/ha): 20
phytotoxicity rating DIGSA ([15]; 250 g ai/ha): 20
phytotoxicity rating SETVI ([16]; 63 g ai/ha): 50
phytotoxicity rating SETVI ([16]; 250 g ai/ha): 60
phytotoxicity rating SORHA ([17]; 63 g ai/ha): 10
phytotoxicity rating SORHA ([17]; 250 g ai/ha): 10
phytotoxicity rating CASOB ([18]; 63 g ai/ha): 60
phytotoxicity rating CASOB ([18]; 250 g ai/ha): 60
phytotoxicity rating AMARE ([19]; 63 g ai/ha): 100
phytotoxicity rating AMARE ([19]; 250 g ai/ha): 100
phytotoxicity rating CHEAL ([20]; 63 g ai/ha): 95
phytotoxicity rating CHEAL ([20]; 250 g ai/ha): 100
phytotoxicity rating ABUTH ([21]; 63 g ai/ha): 100
phytotoxicity rating ABUTH ([21]; 250 g ai/ha): 100
phytotoxicity rating IPOHE ([22]; 63 g ai/ha): 100
phytotoxicity rating IPOHE ([22]; 250 g ai/ha): 100
phytotoxicity rating ECHCG ([23]; 63 g ai/ha): 10
phytotoxicity rating ECHCG ([23]; 250 g ai/ha): 0
phytotoxicity rating AMBEL ([24]; 63 g ai/ha): 80
phytotoxicity rating AMBEL ([24]; 250 g ai/ha): 95
